Source: patent US8846951B2 (AbbVie Inc., priority 2009, dated 2014)
pEC50: −log10 of the molar value. Where two headings read alike, the source gives them in different places.

Experiments:
5HT2C receptors = target: T1, 5HT2C receptors (Homo sapiens, UniProt P28335); assay: Human 5-HT2C functional high throughput screening assay in CHO-K1 cells (calcium flux); format: cell-based; set-up: expressed in transfected cells; host or cells: CHO-K1 cells; conditions: for pEC50: CHO-K1 cells, calcium flux; for Emax: CHO-K1, 5-HT2C, maximum functional response as percentage relative to the effect of serotonin
T1 sequence (P28335 33-458): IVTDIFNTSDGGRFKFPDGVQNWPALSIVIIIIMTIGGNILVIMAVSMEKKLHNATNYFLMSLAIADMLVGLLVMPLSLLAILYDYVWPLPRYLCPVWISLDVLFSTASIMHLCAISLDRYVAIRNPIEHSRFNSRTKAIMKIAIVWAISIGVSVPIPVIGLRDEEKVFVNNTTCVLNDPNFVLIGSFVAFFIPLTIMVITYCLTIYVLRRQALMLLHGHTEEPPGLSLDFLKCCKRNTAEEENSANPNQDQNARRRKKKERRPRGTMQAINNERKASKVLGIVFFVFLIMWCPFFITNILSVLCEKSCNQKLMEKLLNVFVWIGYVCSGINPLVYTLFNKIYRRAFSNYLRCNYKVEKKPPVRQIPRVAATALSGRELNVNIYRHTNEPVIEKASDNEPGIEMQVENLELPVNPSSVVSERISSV
How it was run: (§1)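 Frozen CHO-K1 cells overexpressing the receptor were plated, serum-starved overnight, then loaded with Ca4 dye plus 2.5 mM probenecid for 60 min at room temperature. FLIPR fluorescence (ex 480/em 530 nm, 25 °C) after compound addition was normalized to serotonin; EC50 and Emax came from 4-parameter logistic fits.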

5HT2B receptors = target: T2, 5HT2B receptors (Homo sapiens, UniProt P41595); assay: Human 5-HT2B functional high throughput screening assay in CHO-K1 cells (calcium flux); format: cell-based; conditions: for pEC50: CHO-K1 cells, calcium flux
T2 construct: expressed in transfected cells; host or cells: CHO-K1 cells
How it was run: as §1

[1] = 5-HT2C agonist activity, read-out: EC50
[2] = 5-HT2B agonist activity, read-out: EC50
[3] = 5-HT2B, maximum functional response as percentage relative to the effect of serotonin

T2 sequence (P41595 whole entry): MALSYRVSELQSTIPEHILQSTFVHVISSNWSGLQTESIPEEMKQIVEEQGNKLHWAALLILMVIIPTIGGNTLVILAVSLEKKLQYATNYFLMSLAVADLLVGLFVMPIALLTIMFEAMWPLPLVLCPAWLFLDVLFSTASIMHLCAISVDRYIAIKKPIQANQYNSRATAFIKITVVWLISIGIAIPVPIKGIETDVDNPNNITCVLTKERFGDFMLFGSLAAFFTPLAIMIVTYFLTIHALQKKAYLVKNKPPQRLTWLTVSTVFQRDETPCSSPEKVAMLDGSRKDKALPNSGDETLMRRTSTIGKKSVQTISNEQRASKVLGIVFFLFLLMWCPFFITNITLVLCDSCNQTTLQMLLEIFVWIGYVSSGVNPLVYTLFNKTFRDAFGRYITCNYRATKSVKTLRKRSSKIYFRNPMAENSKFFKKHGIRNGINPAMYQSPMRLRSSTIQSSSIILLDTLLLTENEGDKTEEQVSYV

| Structure (SMILES) | pEC50 (5HT2C receptors; [1]) | Emax (5HT2C receptors; read-out: Emax) [%] | pEC50 (5HT2B receptors; [2]) | Emax (5HT2B receptors; [3]) | Emax (5HT2C receptors) [%] | pEC50 (5HT2B receptors; EC50, 5-HT2B agonist activity) | pEC50 (5HT2C receptors; EC50, 5-HT2C agonist activity) | Emax (5HT2B receptors; CHO-K1) [%] | Emax (5HT2B receptors; CHO-K1, 5-HT2B, maximum functional response as percentage relative to the effect of serotonin, read-out: Emax) [%] |
| --- | --- | --- | --- | --- | --- | --- | --- | --- | --- |
| O=C1NC[C@@H]2CNC[C@H]2c2ccc(OCc3ccccc3C(F)(F)F)cc21 (relative stereo) [Example 148, Trans-8-(2-(trifluoromethyl)benzyloxy)-1,2,3,3a,4,5-hexahydrobenzo[e]pyrrolo[3,4-c]azepin-6(10bH)-one] | 9.05 | > 120 | < 5.00 | inactive |  |  |  |  |  |
| CN1C[C@@H]2CNC[C@H]2c2ccc(F)cc2C1=O [Example 226, (3aS,10bR)-8-Fluoro-5-methyl-1,2,3,3a,4,5-hexahydrobenzo[c]pyrrolo[3,4-e]azepin-6(10bH)-one] |  |  |  | inactive | > 120 | < 5.00 |  |  |  |
| CCC(C)Oc1ccc2c(c1)C(=O)NC[C@@H]1CN(C)C[C@@H]21 (relative stereo) [Example 170, Trans-8-sec-butoxy-2-methyl-1,2,3,3a,4,5-hexahydrobenzo[e]pyrrolo[3,4-c]azepin-6(10bH)-one] |  |  |  | inactive | 120 | < 5.00 | 7.15 |  |  |
| O=S(=O)(c1ccc(Br)s1)N1Cc2cccnc2[C@@H]2CNC[C@H]2C1 (relative stereo) [Example 360, Trans-6-[(5-bromo-2-thienyl)sulfonyl]-5,6,7,7a,8,9,10,10a-octahydropyrido[3,2-c]pyrrolo[3,4-e]azepine] |  |  |  |  | 80 | 6.52 | 8.00 | 20 |  |
| CC(C)COc1ccc2c(c1)C(=O)NC[C@H]1CNC[C@H]21 [Example 308, (3aR-10bS)-8-Isobutoxy-2,3,3a,4,5,10b-hexahydropyrrolo[3,4-d][2]benzazepin-6(1H)-one] |  |  |  | inactive | 95 | < 5.00 | 8.52 |  |  |
| O=C1NC[C@@H]2CN(Cc3ccccc3)C[C@H]2c2c1sc1ccccc21 (relative stereo) [Example 97, Trans-2-benzyl-2,3,3a,4,5,11c-hexahydro[1]benzothieno[2,3-c]pyrrolo[3,4-e]azepin-6(1H)-one] | 6.00 | 110 | 5.40 |  |  |  |  |  | 40 |
| CN1C[C@@H]2CNC(=O)c3cc(OCc4cc(F)cc(F)c4)ccc3[C@H]2C1 [Example 208, (3aS,10bS)-8-(3,5-Difluorobenzyloxy)-2-methyl-1,2,3,3a,4,5-hexahydrobenzo[e]pyrrolo[3,4-c]azepin-6(10bH)-one] | 8.70 | > 120 | < 5.00 | inactive |  |  |  |  |  |
| CN1C[C@H]2CNC(=O)c3c(F)cccc3[C@@H]2C1 (relative stereo) [Example 92, Trans-7-fluoro-2-methyl-1,2,3,3a,4,5-hexahydrobenzo[e]pyrrolo[3,4-c]azepin-6(10bH)-one] |  |  |  |  | > 120 | 5.87 | 7.25 | 34 |  |
| Cc1cccc2c1OCC[C@H]1CNC[C@H]21 (relative stereo) [Example 291, Trans-7-methyl-2,3,3a,4,5,10b-hexahydro-1H-[1]benzoxepino[4,5-c]pyrrole] |  |  |  |  | 95 | 8.00 | 9.40 | 60 |  |
| O=C1NC[C@@H]2CN(Cc3ccccc3)C[C@H]2c2sccc21 (relative stereo) [Example 101, Trans-8-benzyl-6,6a,7,8,9,9a-hexahydropyrrolo[3,4-e]thieno[3,2-c]azepin-4(5H)-one] | 6.40 | > 120 | < 5.00 | inactive |  |  |  |  |  |
| c1ccc2c(c1)OCC[C@@H]1CNC[C@@H]21 [Example 271, (3aS,10bR)-2,3,3a,4,5,10b-Hexahydro-1H-[1]benzoxepino[4,5-c]pyrrole] |  |  |  |  | 120 | 5.30 | 6.40 | 30 |  |
| CC(=O)c1cccc(-c2ccc3c(c2)C(=O)NC[C@@H]2CNC[C@@H]32)c1.Cl (relative stereo) [Example 236, Trans-8-(3-acetylphenyl)-1,2,3,3a,4,5-hexahydrobenzo[c]pyrrolo[3,4-e]azepin-6(10bH)-one hydrochloride] | 9.52 |  | < 5.00 | inactive | > 120 |  |  |  |  |
| O=S(=O)(c1ccc(Cl)s1)N1Cc2cccnc2[C@@H]2CNC[C@H]2C1 (relative stereo) [Example 339, Trans-6-[(5-chloro-2-thienyl)sulfonyl]-5,6,7,7a,8,9,10,10a-octahydropyrido[3,2-c]pyrrolo[3,4-e]azepine] |  |  |  | inactive | 110 | < 5.00 | 7.52 |  |  |
| COc1cccc2c1[C@H]1CN(C)C[C@@H]1CCO2 (relative stereo) [Example 273, Trans-10-methoxy-2-methyl-2,3,3a,4,5,10b-hexahydro-1H-[1]benzoxepino[4,5-c]pyrrole] |  |  |  |  | > 120 | 7.00 | 8.00 | 35 |  |
| O=C1NC[C@@H]2CNC[C@H]2c2ccc(C3CCOCC3)cc21 (relative stereo) [Example 265, Trans-8-(tetrahydro-2H-pyran-4-yl)-1,2,3,3a,4,5-hexahydrobenzo[c]pyrrolo[3,4-e]azepin-6(10bH)-one] | 7.00 | > 120 | < 5.00 | inactive |  |  |  |  |  |
| Fc1ccc(-c2cccc3c2OCC[C@H]2CNC[C@H]32)cc1 (relative stereo) [Example 399, Trans-7-(4-fluorophenyl)-2,3,3a,4,5,10b-hexahydro-1H-[1]benzoxepino[4,5-c]pyrrole] | 7.05 | 90 | < 5.00 | inactive |  |  |  |  |  |
| CN1C[C@H]2CCN(C)c3ccc(Cl)cc3[C@@H]2C1 (relative stereo) [Example 395, Trans-9-chloro-2,6-dimethyl-1,2,3,3a,4,5,6,10b-octahydropyrrolo[3,4-d][1]benzazepine] |  |  |  |  | 50 | 7.10 | 6.30 | 65 |  |
| O=C1NC[C@@H]2CN(Cc3ccccc3)C[C@H]2c2ccc(-c3nnco3)cc21 (relative stereo) [Example 136, Trans-2-benzyl-8-(1,3,4-oxadiazol-2-yl)-1,2,3,3a,4,5-hexahydrobenzo[e]pyrrolo[3,4-c]azepin-6(10bH)-one] | 5.70 | 110 | < 5.00 | inactive |  |  |  |  |  |
| Oc1cccc2c1[C@H]1CNC[C@@H]1CCO2 (relative stereo) [Example 374, Trans-2,3,3a,4,5,10b-hexahydro-1H-[1]benzoxepino[4,5-c]pyrrol-10-ol] |  |  |  |  | 90 | 6.15 | 7.10 | 30 |  |
| CC(C)c1cccc(-c2ccc3c(c2)C(=O)NC[C@@H]2CN(C)C[C@@H]32)c1 (relative stereo) [Example 379, Trans-8-(3-isopropylphenyl)-2-methyl-2,3,3a,4,5,10b-hexahydropyrrolo[3,4-d][2]benzazepin-6(1H)-one] | 8.30 | 100 | < 5.00 | inactive |  |  |  |  |  |
| Cc1noc(C)c1-c1ccc2c(c1)C(=O)NC[C@@H]1CNC[C@@H]21 (single isomer, unassigned) [Example 245, Trans-8-(3,5-dimethylisoxazol-4-yl)-1,2,3,3a,4,5-hexahydrobenzo[e]pyrrolo[3,4-c]azepin-6(10bH)-one] |  |  |  |  | 100 | 5.70 | 7.30 | 15 |  |
| CC(O)c1cccc(-c2cccc3c2OCC[C@H]2CNC[C@H]32)c1 (relative stereo) [Example 367, 1-{3-[Trans-2,3,3a,4,5,10b-hexahydro-1H-[1]benzoxepino[4,5-c]pyrrol-7-yl]phenyl}ethanol] | 7.70 | 90 | < 5.00 | inactive |  |  |  |  |  |
| CC(=O)c1ccc(-c2ccc3c(c2)C(=O)NC[C@@H]2CNC[C@@H]32)s1 (relative stereo) [Example 296, Trans-8-(5-acetyl-2-thienyl)-2,3,3a,4,5,10b-hexahydropyrrolo[3,4-d][2]benzazepin-6(1H)-one] | 9.00 | 100 | < 5.00 | inactive |  |  |  |  |  |
| CC(C)C(O)c1cccc(-c2ccc3c(c2)C(=O)NC[C@H]2CN(C)C[C@H]32)c1 (stereo partly drawn) [Example 304, (3aS,10bS)-8-[3-(1-Hydroxy-2-methylpropyl)phenyl]-2-methyl-2,3,3a,4,5,10b-hexahydropyrrolo[3,4-d][2]benzazepin-6(1H)-one] | 9.15 | 100 | < 5.00 | inactive |  |  |  |  |  |
